Measurements: article PMC7764612 (Pharmaceuticals, 2020)
pIC50: −log10 of the molar value. Where “and” joins values, the source holds several entries; their conditions need not be identical. Identical values can stand only once. Entries after “also recorded” stand apart in the source; their conditions may differ.

Legend:
in vitro = conditions: human
TBEV Neudoerfl strain [1] = experiment: microbe, parasite or virus in culture; format: cell-based, tick-borne encephalitis virus; conditions: for pIC50: Tick-borne encephalitis virus, A549, 72 h, read-out: IC50 (concentration to reduce infectious viral titers by 50%)
TBEV Hypr strain = format: cell-based, tick-borne encephalitis virus
TBEV Neudoerfl strain [2] = format: cell-based, tick-borne encephalitis virus
TBEV E protein = format: cell-based, tick-borne encephalitis virus

CC(=O)OC[C@H]1O[C@@H](NC(=O)[C@H]2O[C@@H](n3ccc(=O)[nH]c3=O)[C@@H]3OC(C)(C)O[C@@H]32)[C@H](OC(C)=O)[C@@H](OC(C)=O)[C@H]1OC(C)=O [Compound 14]
CC50 (in vitro): 114 µM

CC(=O)OC[C@H]1O[C@@H](n2cc(COC[C@H]3O[C@@H](n4ccc(=O)[nH]c4=O)[C@H](O[Si](C)(C)C(C)(C)C)[C@@H]3O[Si](C)(C)C(C)(C)C)nn2)[C@H](OC(C)=O)[C@@H](OC(C)=O)[C@H]1OC(C)=O [Compound 21, 1-(2″,3″,4″,6″-tetra-O-acetyl-β-D-galactopyranosyl)-4-(2′,3′-di-O-tert-butyldimethylsilyl-uridine-5′-O-methyl)-[1,2,3]-triazole]
Effect on TBEV titers in dose-response assay (TBEV Neudoerfl strain [1]): significantly reduced TBEV titers in a dose-dependent manner | Reduction in viral titer (TBEV Neudoerfl strain [1]): 10^4 fold | SI (selectivity index: CC50/IC50) (TBEV Neudoerfl strain [1]): 24.7 | Virus detected in culture supernatant (viral titer) (TBEV Neudoerfl strain [1]): no virus was detected | pIC50 (TBEV Neudoerfl strain [1]): 5.33 | TBEV-induced cytopathic effect / rate of cell death (TBEV Hypr strain): nearly completely inhibited; also recorded: significantly increased cell survival | Inhibition of TBEV propagation (size and number of plaques) (TBEV Neudoerfl strain [2]): nearly a complete inhibition of TBEV propagation | Plaques detected in dose-response plaque reduction assay (TBEV Neudoerfl strain [2]): no plaques were detected | Reduction in the number of plaques (TBEV Neudoerfl strain [2]): 92% and 62% | CC50 (in vitro): 116 µM | Production of TBEV E protein (Western blot) (TBEV E protein): dose-dependent reduction; also recorded: greatly decreased at all tested concentrations

CC(=O)OC[C@H]1O[C@@H](OCc2cn(C[C@H]3O[C@@H](n4ccc(=O)[nH]c4=O)[C@@H]4OC(C)(C)O[C@@H]43)nn2)[C@H](OC(C)=O)[C@@H](OC(C)=O)[C@@H]1OC(C)=O [Compound 22, 2′,3′-O-isopropylidene-5′-deoxy-5′-[4-(2″,3″,4″,6″-tetra-O-acetyl-β-D-glucopyranosyl-oxymethyl)-1,2-3-triazol-1-yl]uridine]
melting point: 108 to 110 °C | CC50 (in vitro): 173 µM

CC(=O)OC[C@H]1O[C@@H](NC(=O)[C@H]2O[C@@H](n3ccc(=O)[nH]c3=O)[C@@H]3OC(C)(C)O[C@@H]32)[C@H](OC(C)=O)[C@@H](OC(C)=O)[C@@H]1OC(C)=O [Compound 13]
CC50 (in vitro): 129 µM

CC(=O)OC[C@H]1O[C@@H](n2cc(CNC(=O)[C@H]3O[C@@H](n4ccc(=O)[nH]c4=O)[C@@H]4OC(C)(C)O[C@@H]43)nn2)[C@H](OC(C)=O)[C@@H](OC(C)=O)[C@@H]1OC(C)=O [Compound 16]
CC50 (in vitro): 136 µM

CC(=O)OC[C@H]1O[C@@H](n2cc(CNC(=O)[C@H]3O[C@@H](n4ccc(=O)[nH]c4=O)[C@@H]4OC(C)(C)O[C@@H]43)nn2)[C@H](OC(C)=O)[C@@H](OC(C)=O)[C@H]1OC(C)=O [Compound 17]
CC50 (in vitro): 137 µM

CC(=O)OC[C@H]1O[C@@H](n2cc(COC[C@H]3O[C@@H](n4ccc(=O)[nH]c4=O)[C@H](O[Si](C)(C)C(C)(C)C)[C@@H]3O[Si](C)(C)C(C)(C)C)nn2)[C@H](OC(C)=O)[C@@H](OC(C)=O)[C@@H]1OC(C)=O [Compound 20, 1-(2″,3″,4″,6″-tetra-O-acetyl-β-D-glucopyranosyl)-4-(2′,3′-di-O-tert-butyldimethylsilyl-uridine-5′-O-methyl)-[1,2,3]-triazole]
Effect on TBEV titers in dose-response assay (TBEV Neudoerfl strain [1]): significantly reduced TBEV titers in a dose-dependent manner | Reduction in viral titer (TBEV Neudoerfl strain [1]): 10^3 fold | SI (selectivity index: CC50/IC50) (TBEV Neudoerfl strain [1]): 49.7 | Virus detected in culture supernatant (viral titer) (TBEV Neudoerfl strain [1]): no virus was detected | pIC50 (TBEV Neudoerfl strain [1]): 5.43 | TBEV-induced cytopathic effect / rate of cell death (TBEV Hypr strain): nearly completely inhibited; also recorded: significantly increased cell survival | Inhibition of TBEV propagation (size and number of plaques) (TBEV Neudoerfl strain [2]): nearly a complete inhibition of TBEV propagation | Plaques detected in dose-response plaque reduction assay (TBEV Neudoerfl strain [2]): no plaques were detected | Reduction in the number of plaques (TBEV Neudoerfl strain [2]): 96% and 75% | CC50 (in vitro): 184 µM | Production of TBEV E protein (Western blot) (TBEV E protein): complete inhibition of viral protein synthesis

CC1(C)O[C@@H]2[C@H](O1)[C@@H](C(=O)N[C@@H]1O[C@H](COCc3ccccc3)[C@@H](OCc3ccccc3)[C@H](OCc3ccccc3)[C@H]1OCc1ccccc1)O[C@H]2n1ccc(=O)[nH]c1=O [Compound 15, N-(2″,3″,4″,6″-tetra-O-benzyl-β-D-galactopyranosyl)-2′,3′-O-isopropylidene-uridine-5′-amide]
CC50 (in vitro): 153 µM

CC(=O)OC[C@H]1O[C@@H](n2cc(CNC(=O)[C@H]3O[C@@H](n4ccc(=O)[nH]c4=O)[C@H](O[Si](C)(C)C(C)(C)C)[C@@H]3O[Si](C)(C)C(C)(C)C)nn2)[C@H](OC(C)=O)[C@@H](OC(C)=O)[C@@H]1OC(C)=O [Compound 18, 1-(2″,3″,4″,6″-tetra-O-acetyl-β-D-glucopyranosyl)-4-(2′,3′-di-O-tert-butyldimethylsilyl-uridine-5′-carbonylaminomethyl)-[1,2,3]-triazole]
Effect on TBEV titers in dose-response assay (TBEV Neudoerfl strain [1]): significantly reduced TBEV titers in a dose-dependent manner | Reduction in viral titer (TBEV Neudoerfl strain [1]): 10^3–10^6 fold | SI (selectivity index: CC50/IC50) (TBEV Neudoerfl strain [1]): 7.4 | pIC50 (TBEV Neudoerfl strain [1]): 5.03 | TBEV-induced cytopathic effect / rate of cell death (TBEV Hypr strain): strongly reduced; also recorded: significantly increased cell survival | Inhibition of TBEV propagation (size and number of plaques) (TBEV Neudoerfl strain [2]): effectively inhibited virus propagation | Reduction in the number of plaques (TBEV Neudoerfl strain [2]): 98% | CC50 (in vitro): 69 µM | Production of TBEV E protein (Western blot) (TBEV E protein): dose-dependent reduction

CC(=O)OC[C@H]1O[C@@H](n2cc(CNC(=O)[C@H]3O[C@@H](n4ccc(=O)[nH]c4=O)[C@H](O[Si](C)(C)C(C)(C)C)[C@@H]3O[Si](C)(C)C(C)(C)C)nn2)[C@H](OC(C)=O)[C@@H](OC(C)=O)[C@H]1OC(C)=O [Compound 19, 1-(2″,3″,4″,6″-tetra-O-acetyl-β-D-galactopyranosyl)-4-(2′,3′-di-O-tert-butyldimethylsilyl-uridine-5′-carbonylaminomethyl)-[1,2,3]-triazole]
Effect on TBEV titers in dose-response assay (TBEV Neudoerfl strain [1]): significantly reduced TBEV titers in a dose-dependent manner | Reduction in viral titer (TBEV Neudoerfl strain [1]): 10^3–10^6 fold | SI (selectivity index: CC50/IC50) (TBEV Neudoerfl strain [1]): 5.1 | pIC50 (TBEV Neudoerfl strain [1]): 4.82 | TBEV-induced cytopathic effect / rate of cell death (TBEV Hypr strain): strongly reduced; also recorded: significantly increased cell survival | Inhibition of TBEV propagation (size and number of plaques) (TBEV Neudoerfl strain [2]): effectively inhibited virus propagation | Reduction in the number of plaques (TBEV Neudoerfl strain [2]): 81% | CC50 (in vitro): 77 µM | Production of TBEV E protein (Western blot) (TBEV E protein): dose-dependent reduction

CC(=O)OC[C@H]1O[C@@H](OCc2cn(C[C@H]3O[C@@H](n4ccc(=O)[nH]c4=O)[C@@H]4OC(C)(C)O[C@@H]43)nn2)[C@H](OC(C)=O)[C@@H](OC(C)=O)[C@H]1OC(C)=O [Compound 23, 2′,3′-O-isopropylidene-5′-deoxy-5′-[4-(2″,3″,4″,6″-tetra-O-acetyl-β-D-galactopyranosyl-oxymethyl)-1,2-3-triazol-1-yl]uridine]
melting point: 101 to 105 °C | CC50 (in vitro): 157 µM
